From patent US20120122848A1, “(+)-3-HYDROXYMORPHINAN DERIVATIVES AS NEUROPROTECTANTS” (GREEN CROSS CORPORATION, priority 2009, published 2012)
pEC50: −log10 of the molar value. Counter-ions that a name gives are not always drawn.

How the values were obtained:
[1] = Cell cytotoxicity test: protection of HT22 cells against glutamate toxicity (EC50) and cytotoxicity of the compounds (CC50), MTT; format: cell-based, mouse; conditions: mouse, HT22 cells (mouse hippocampal neuron)
Description: (§1) HT22 cells (mouse hippocampal neuron, Salk Institute and KRIBB) were plated in a 96-well plate at a density of 3×10^3 cells/well for 16 hrs before treatment. The cells were treated with five millimolar glutamate and various concentrations of the inventive compounds and incubated for 24 hrs in a growth media (DMEM with 10% FBS and 1% penicillin streptomycin). Then, the cells were treated with 3-(4,5-dimethylthiazol-2-yl)-2,5-diphenyltetrazolium bromide (MTT, Sigma®) for 4 hrs and absorbance of each well was measured with a plate reader at a wavelength of 450 nm. [Da-Qing, et. al., Anti-oxidant and anti-inflammatory activities of macelignan in murine hippocampal cell line and primary culture of rat microglia cells, BBRC, 2005, 331, 1264-1269].
(§2) In Table 1, EC50 is neuroprotective effect against glutamate toxicity and CC50 is cytotoxicity of the compounds. The EC50 values were statistically analyzed using Prizm® (GraphPad Software Inc., San Diego, Calif., USA).

[2] = tested on: HT22 cells (mouse hippocampal neuron); assay: as above; format: cell-based; conditions: Mus musculus, HT-22, five millimolar glutamate, 24 hrs, read-out: EC50 (neuroprotective effect against glutamate toxicity)
Description: as §1, §2

| SMILES | CC50 at 24 h [1] | pEC50 [2] |
| --- | --- | --- |
| CC(C)Cc1cc2c(cc1O)[C@]13CCCC[C@@H]1[C@H](C2)NCC3 [Example 81, (+)-3-Hydroxy-2-isobutylmorphinan TFA salt] | 11.3 µM | 5.84 |
| OCc1cc2c(cc1O)[C@]13CCCC[C@@H]1[C@H](C2)NCC3 [Example 16, (+)-3-Hydroxy-2-(hydroxymethyl)morphinan TFA salt] |  | < 4.00 |
| CN(c1ccc(F)cc1)c1cc2c(cc1O)[C@]13CCCC[C@@H]1[C@H](C2)NCC3 [Example 124, (+)-2-(4-Fluorophenyl(methyl)amino)-3-hydroxymorphinan TFA salt] | 6.4 µM | 6.43 |
| CNc1ccccc1Nc1cc2c(cc1O)[C@]13CCCC[C@@H]1[C@H](C2)NCC3 [Example 127, (+)-3-Hydroxy-2-(2-(methylamino)phenylamino)morphinan TFA salt] | 1.3 µM | 7.21 |
| CC(C)(C)Nc1cc2c(cc1O)[C@]13CCCC[C@@H]1[C@H](C2)NCC3 [Example 20, (+)-2-(tert-Butylamino)-3-hydroxymorphinan TFA salt] | > 100 µM | 6.37 |
| CS(=O)(=O)Nc1ccccc1Nc1c(O)cc2c(c1Br)C[C@@H]1NCC[C@]23CCCC[C@H]13 [Example 132, (+)-1-Bromo-3-hydroxy-2-(2-(methanesulfonamido)phenylamino)morphinan TFA salt] | 10.6 µM | 6.63 |
| Oc1cc2c(cc1Nc1ccc3c(c1)OCCO3)C[C@@H]1NCC[C@]23CCCC[C@H]13 [Example 37, (+)-2((3,4-Ethylenedioxy)phenylamino)-3-hydroxymorphinan TFA salt] | 14.2 µM | 6.85 |
| Oc1cc2c(cc1Nc1ccccc1Cl)C[C@@H]1NCC[C@]23CCCC[C@H]13 [Example 48, (+)-2-(2-Chlorophenylamino)-3-hydroxymorphinan TFA salt] | 2.7 µM | 7.00 |
| Oc1cc2c(cc1Nc1ccccc1N1CCCCC1)C[C@@H]1NCC[C@]23CCCC[C@H]13 [Example 128, (+)-3-Hydroxy-2-(2-(piperidin-1-yl)phenylamino)morphinan TFA salt] | 1.6 µM | 7.45 |
| Cc1ccc(Nc2cc3c(cc2O)[C@]24CCCC[C@@H]2[C@H](C3)NCC4)cc1 [Example 28, (+)-3-Hydroxy-2-(4-methylphenylamino)morphinan TFA salt] | 1.84 µM | 7.49 |
| COC(=O)c1ccccc1Nc1cc2c(cc1O)[C@]13CCCC[C@@H]1[C@H](C2)NCC3 [Example 108, (+)-3-Hydroxy-2-(2-(methoxycarbonyl)phenylamino)morphinan TFA salt] | > 100 µM | 5.10 |
| COc1ccc(Nc2cc3c(cc2O)[C@]24CCCC[C@@H]2[C@H](C3)NCC4)cc1OC [Example 63, (+)-2-(3,4-Dimethoxyphenylamino)-3-hydroxymorphinan TFA salt] | 10.1 µM | 7.54 |
| NC(=O)c1ccccc1Nc1cc2c(cc1O)[C@]13CCCC[C@@H]1[C@H](C2)NCC3 [Example 61, (+)-2-(2-Carbamoylphenylamino)-3-hydroxymorphinan TFA salt] | 50 µM | 5.75 |
| CN(c1cc2c(cc1O)[C@]13CCCC[C@@H]1[C@H](C2)NCC3)c1ccccc1NS(C)(=O)=O [Example 125, (+)-3-Hydroxy-2-(2-(methanesulfonamido)phenyl(methyl)amino)morphinan TFA salt] | 45.9 µM | 4.96 |
| Oc1c(F)cc2c(c1Cl)[C@]13CCCC[C@@H]1[C@H](C2)NCC3 [Example 2, (+)-4-Chloro-2-fluoro-3-hydroxymorphinan TFA salt] |  | 4.30 |
| Oc1cc2c(cc1Nc1ccccc1Cc1ccccc1)C[C@@H]1NCC[C@]23CCCC[C@H]13 [Example 62, (+)-2-(2-Benzylphenylamino)-3-hydroxymorphinan TFA salt] | 1.6 µM | 7.28 |
| Oc1cc2c(cc1Nc1ccccc1)C[C@@H]1NCC[C@]23CCCC[C@H]13 [Example 30, (+)-3-Hydroxy-2-(phenylamino)morphinan TFA salt] | 7.79 µM | 7.45 |
| CCc1ccccc1Nc1cc2c(cc1O)[C@]13CCCC[C@@H]1[C@H](C2)NCC3 [Example 49, (+)-2-(2-Ethylphenylamino)-3-hydroxymorphinan TFA salt] | 1.1 µM | 7.48 |
| Oc1cc2c(cc1Nc1c(O)cccc1O)C[C@@H]1NCC[C@]23CCCC[C@H]13 [Example 47, (+)-2-(2,6-Dihydroxyphenylamino)-3-hydroxymorphinan TFA salt] | 9 µM | 6.56 |
| Oc1cc2c(cc1Nc1cccc(Cl)c1O)C[C@@H]1NCC[C@]23CCCC[C@H]13 [Example 55, (+)-2-(3-Chloro-2-hydroxyphenylamino)-3-hydroxymorphinan TFA salt] | 9.2 µM | 7.00 |
| CCCCc1cc2c(cc1O)[C@]13CCCC[C@@H]1[C@H](C2)NCC3 [Example 83, (+)-2-Butyl-3-hydroxymorphinan TFA salt] | 51.5 µM | 5.68 |
| CCCCNc1cc2c(cc1O)[C@]13CCCC[C@@H]1[C@H](C2)NCC3 [Example 90, (+)-2-Butylamino-3-hydroxymorphinan TFA salt] | 35 µM | 7.13 |

| SMILES | CC50 at 24 h [1] | pEC50 [2] |
| --- | --- | --- |
| O=C(O)c1ccccc1Nc1cc2c(cc1O)[C@]13CCCC[C@@H]1[C@H](C2)NCC3 [Example 109, (+)-2-(2-Carboxyphenylamino)-3-hydroxymorphinan TFA salt] | > 100 µM | 4.85 |
| CCCCOC(=O)Nc1ccccc1Nc1cc2c(cc1O)[C@]13CCCC[C@@H]1[C@H](C2)NCC3 [Example 118, (+)-2-(2-(Butoxycarbonylamino)phenylamino)-3-hydroxymorphinan TFA salt] |  | 6.05 |
| Oc1cc2c(cc1N1CCOCC1)C[C@@H]1NCC[C@]23CCCC[C@H]13 [Example 86, (+)-3-Hydroxy-2-morpholinomorphinan TFA salt] | > 100 µM | 5.81 |
| CSc1cc2c(cc1O)[C@]13CCCC[C@@H]1[C@H](C2)NCC3 [Example 72, (+)-3-Hydroxy-2-methylthiomorphinan TFA salt] | 77.3 µM | 5.66 |
| Oc1cc2c(cc1O)[C@]13CCCC[C@@H]1[C@H](C2)NCC3 [Example 10, (+)-2,3-Dihydroxymorphinan TFA salt] |  | 4.92 |
| CCc1cc2c(cc1O)[C@]13CCCC[C@@H]1[C@H](C2)NCC3 [Example 84, (+)-2-Ethyl-3-hydroxymorphinan TFA salt] |  | 5.17 |
| Oc1c(Br)cc2c(c1Br)[C@]13CCCC[C@@H]1[C@H](C2)NCC3 [Example 6, (+)-2,4-Dibromo-3-hydroxymorphinan TFA salt] |  | 5.02 |
| Oc1cc2c(cc1-c1ccc(Cl)cc1)C[C@@H]1NCC[C@]23CCCC[C@H]13 [Example 74, (+)-2-(4-Chlorophenol)-3-hydroxymorphinan TFA salt] |  | 6.10 |
| O=C(O)c1cc2c(cc1O)[C@]13CCCC[C@@H]1[C@H](C2)NCC3 [Example 14, ((+)-3-Hydroxymorphinan)-2-carboxylic acid TFA salt] |  | 4.06 |
| CCCCNC(=S)Nc1ccccc1Nc1cc2c(cc1O)[C@]13CCCC[C@@H]1[C@H](C2)NCC3 [Example 123, (+)-2-(2-(Butylthioureido)phenylamino)-3-hydroxymorphinan TFA salt] |  | 6.34 |
| Oc1ccc2c(c1Br)[C@]13CCCC[C@@H]1[C@H](C2)NCC3 [Example 7, (+)-4-Bromo-3-hydroxymorphinan TFA salt] |  | 4.90 |
| Oc1c(Cl)cc2c(c1Br)[C@]13CCCC[C@@H]1[C@H](C2)NCC3 [Example 8, (+)-4-Bromo-2-chloro-3-hydroxymorphinan TFA salt] |  | 4.69 |
| Oc1cc2c(cc1F)C[C@@H]1NCC[C@]23CCCC[C@H]13 [Example 1, (+)-2-Fluoro-3-hydroxymorphinan TFA salt] |  | 5.01 |
| Oc1cc2c(cc1-c1ccccc1)C[C@@H]1NCC[C@]23CCCC[C@H]13 [Example 80, (+)-3-Hydroxy-2-phenylmorphinan TFA salt] |  | 5.04 |
| Oc1ccc2c(c1Cl)[C@]13CCCC[C@@H]1[C@H](C2)NCC3 [Example 5, (+)-4-Chloro-3-hydroxymorphinan TFA salt] |  | 5.03 |
| Oc1c(Cl)cc2c(c1Cl)[C@]13CCCC[C@@H]1[C@H](C2)NCC3 [Example 4, (+)-2,4-Dichloro-3-hydroxymorphinan TFA salt] |  | 4.96 |
| Cc1cc2c(cc1O)[C@]13CCCC[C@@H]1[C@H](C2)NCC3 [Example 85, (+)-3-Hydroxy-2-methylmorphinan TFA salt] |  | 5.08 |
| Oc1c(F)cc2c(c1Br)[C@]13CCCC[C@@H]1[C@H](C2)NCC3 [Example 3, (+)-4-Bromo-2-fluoro-3-hydroxymorphinan TFA salt] |  | 4.70 |
| COc1cc2c(cc1O)[C@]13CCCC[C@@H]1[C@H](C2)NCC3 [Example 12, (+)-3-Hydroxy-2-methoxymorphinan TFA salt] |  | 4.61 |
| O=Cc1cc2c(cc1O)[C@]13CCCC[C@@H]1[C@H](C2)NCC3 [Example 13, (+)-2-Formyl-3-hydroxymorphinan TFA salt] |  | 4.94 |
| Oc1cc2c(cc1I)C[C@@H]1NCC[C@]23CCCC[C@H]13 [Example 9, (+)-3-Hydroxy-2-iodomorphinan TFA salt] |  | 4.99 |
